Results: patent US20070111258A1, “Compositions and methods for modulating the acute phase response” (priority 2005, published 2007)

Experiments:
CRP = test: Serum CRP in CREBH knockdown and control RNAi mice (ELISA); type: in vivo, mouse; conditions: 24 hours after injection
Experimental: (A) Identification of CREBH knockdown mice by Northern blot analysis. Transgenic mice with empty vector lentivirus expressing GFP were used as controls. Total RNAs (15 μg/lane) were isolated from the livers of the CREBH RNAi or the control mice, and subjected to Northern blot analysis. A 260 bp GFP cDNA fragment and a 210 bp mouse CREBH cDNA fragment were used as probes for detecting levels of GFP mRNA and CREBH mRNA, respectively. Levels of ββ-actin mRNA were determined for control of sample loading. (B) Morphology of CREBH knockdown embryos. The embryos were collected at gestation stage E14.5. The paraffin-embedded embryo sections were stained with hematoxylin and eosin. Magnification: 20 X. (C) Northern blot analysis of levels of CREBH, CRP and SAP mRNA in the livers of the CREBH knockdown or the control mice. Levels of β-actin mRNA were determined for sample loading controls. (D-E) Serum levels of SAP and CRP in the CREBH knockdown and the siRNA control mice in response to IL6 plus IL1β LPS or Tm. CREBH knockdown and RNAi control mice at 3-months of age were challenged with recombinant mouse IL6 (25 ng/gram body weight) plus recombinant mouse IL1β (25 ng/gram body weight), LPS (3 μg/gram body weight) or Tm (2 mg/kg body weight). Serum levels of SAP and CRP in the mice were determined before injection and at 24 hours after IL6 plus IL1β, LPS or Tm injection. […]

[1] = test system: CREBH and ATF6 heterodimers; test: IP-Western blot of CREBH and ATF6 interaction in 293T cells; type: cell-based, human; conditions: 293T cells expressing flag-tagged CREBH; 8 hours after Tm treatment
Experimental: FIG. 11 depicts the synergistic interaction of CREBH with ATF6 to activate transcription of the major APR genes. (A) Luciferase reporter analysis of trans-activation effects of CREBH on promoters of the murine SAP gene and the human CRP gene in H2.35 cells. H2.35 cells in a 35 mm collagen-coated plate were co-transfected with a control vector or a CREBH expression vector (0.25 μg), the luciferase reporter (0.6 μg) and pcDNA3-LacZ (0.25 μg), and were then cultured in the absence or presence of Tm (5 μg/ml) for 10 hours. (B) CREBH-DN efficiently suppresses CREBH trans-activation on the murine SAP and the human CRP promoters. […] (C) Interaction between ATF6 and CREBH was determined by IP-Western blot analysis. […] Expression levels of CREBH in the transfected cells were determined by Western blot analysis of total cell lysates using the anti-flag antibody (lower panel). […]
For analysis of expression and cleavage of CREBH protein, total cell lysates were prepared from H2.35 cells or COS7 cells using Nonidet P-40 lysis buffer (1% NP-40, 50 mM Tris-HCl at pH 7.5, 150 mM NaCl, 0.05% SDS) supplemented with protease inhibitors (Complete Mini from Roche Applied Science), 0.1 mM sodium vanadate, and 1 mM sodium fluoride. […] The total cell lysate, membrane and nuclear fractions were subjected to SDS-PAGE and then analyzed by Western blot using anti-flag monoclonal antibody or other antibodies. […]

tunicamycin [Tm]
increase of serum levels of CRP (CRP; control RNAi mice): approximately 2 fold | increase of serum levels of CRP (CRP; treated CREBH knockdown mice): no such increase | interaction between CREBH and ATF6 [1]: significantly increased
